≈ marks a conversion by molar mass, not a printed value. Where two headings read alike, the source gives them in different places.
Columns and labels:
Assay type in all cases: cell-based, P. aeruginosa
[1] = system: PA-028, blaNDM; assay: MIC / checkerboard with ATM; design: key to Susceptibility category: S: susceptible; I: intermediate; R: resistant; details: for MIC: Pseudomonas aeruginosa
[2] = system: PA-002, blaIMP; assay: MIC / checkerboard with ATM; design: key to Susceptibility category: S: susceptible; I: intermediate; R: resistant; details: for MIC: Pseudomonas aeruginosa
[3] = system: PA-035, blaGES; assay: MIC / checkerboard with ATM; design: key to Susceptibility category: S: susceptible; I: intermediate; R: resistant; details: for MIC: Pseudomonas aeruginosa
[4] = system: PA-002, blaIMP; assay: Time–kill assay; details: 24 h
Protocol: (§1) Aliquots (50 μL) were taken from the incubation mixture at regular time intervals (t = 0, 3, 6, and 24 h), serially diluted in 0.85% NaCl solution, and plated on BAP. Bacterial colonies were counted, and the data are presented as the means of at least three independent experiments.

[5] = system: PA-014, blaGES; assay: Time–kill assay; details: 24 h
Protocol: as §1

[6] = system: PA-003, blaVIM; assay: Time–kill assay; details: 24 h
Protocol: as §1

[7] = system: PA-017, blaNDM; assay: Time–kill assay; details: 24 h
Protocol: as §1

[8] = system: PA-041, blaNDM; assay: MIC / checkerboard with ATM; design: key to Susceptibility category: S: susceptible; I: intermediate; R: resistant; details: for MIC: Pseudomonas aeruginosa
[9] = system: PA-036, blaNDM; assay: MIC / checkerboard with ATM; design: key to Susceptibility category: S: susceptible; I: intermediate; R: resistant; details: PA-036
[10] = system: PA-034, blaNDM; assay: MIC / checkerboard with ATM; design: key to Susceptibility category: S: susceptible; I: intermediate; R: resistant; details: PA-034
[11] = system: ATM-Susceptible CPPA (n = 11); assay: MIC distribution over clinical isolates; details: Pseudomonas aeruginosa
[12] = system: PA-030, blaIMP; assay: MIC / checkerboard with ATM; design: key to Susceptibility category: S: susceptible; I: intermediate; R: resistant; details: PA-030
[13] = system: PA-039, blaNDM; assay: MIC / checkerboard with ATM; design: key to Susceptibility category: S: susceptible; I: intermediate; R: resistant; details: PA-039
[14] = system: PA-027, blaIMP; assay: MIC / checkerboard with ATM; design: key to Susceptibility category: S: susceptible; I: intermediate; R: resistant; details: for MIC: Pseudomonas aeruginosa

C[C@H]1[C@H](NC(=O)/C(=N\OC(C)(C)C(=O)O)c2csc(N)n2)C(=O)N1S(=O)(=O)O [ATM, aztreonam] was tested, and the “Susceptibility to ATM” value ([1]; PA-028, ATM alone) was “S (S (sensitive, MIC ≤ 8 mg/L))”, the Susceptibility category ([1]; PA-028, Table S2) was “S” and the MIC ([1]; PA-028, Table S2, read-out: MIC value) was 4 µg/mL. The MIC ([1]; read-out: MIC of ATM, PA-028, ATM alone (5 at 0 mg/L)) was 8 µg/mL, the “Susceptibility to ATM” value ([2]; PA-002, ATM alone) was “R (R (resistant, MIC ≥ 32 mg/L))” and the Susceptibility category ([2]; PA-002, Table S2) was “R”. For the same compound, the MIC ([2]; PA-002, Table S2, read-out: MIC value) was 32 µg/mL, the MIC ([2]; read-out: MIC of ATM, PA-002, ATM alone (5 at 0 mg/L)) was 32 µg/mL and the “Susceptibility to ATM” value ([3]; PA-035, ATM alone) was “S (S (sensitive, MIC ≤ 8 mg/L))”. For the same compound, the Susceptibility category ([3]; PA-035, Table S2) was “S”, the MIC ([3]; PA-035, Table S2, read-out: MIC value) was 8 µg/mL and the MIC ([3]; read-out: MIC of ATM, PA-035, ATM alone (5 at 0 mg/L)) was 8 µg/mL. For the same compound, the “Log CFU/mL, ATM only” value ([4]; ATM 1/2 MIC) was 9.02 Log CFU/mL, the “Log CFU/mL, ATM only” value ([4]; ATM 1/4 MIC) was 9.48 Log CFU/mL and the “Log CFU/mL, ATM only” value ([4]; ATM 1 MIC) was 8.15 Log CFU/mL. For the same compound, the “Log CFU/mL, ATM only” value ([4]; ATM 2 MIC) was 5.50 Log CFU/mL, the “Log CFU/mL, ATM only” value ([5]; ATM 1/2 MIC) was 8.83 Log CFU/mL and the “Log CFU/mL, ATM only” value ([5]; ATM 1/4 MIC) was 9.33 Log CFU/mL. For the same compound, the “Log CFU/mL, ATM only” value ([5]; ATM 1 MIC) was 7.68 Log CFU/mL, the “Log CFU/mL, ATM only” value ([5]; ATM 2 MIC) was 2.45 Log CFU/mL and the “Log CFU/mL, ATM only” value ([6]; ATM 1/2 MIC) was 9.88 Log CFU/mL. For the same compound, the “Log CFU/mL, ATM only” value ([6]; ATM 1/4 MIC) was 10.18 Log CFU/mL, the “Log CFU/mL, ATM only” value ([6]; ATM 1 MIC) was 9.13 Log CFU/mL and the “Log CFU/mL, ATM only” value ([6]; ATM 2 MIC) was 6.40 Log CFU/mL. The “Log CFU/mL, ATM only” value ([7]; ATM 1/2 MIC) was 9.97 Log CFU/mL, the “Log CFU/mL, ATM only” value ([7]; ATM 1/4 MIC) was 10.74 Log CFU/mL and the “Log CFU/mL, ATM only” value ([7]; ATM 1 MIC) was 6.52 Log CFU/mL. The “Log CFU/mL, ATM only” value ([7]; ATM 2 MIC) was 0.12 Log CFU/mL, the “Susceptibility to ATM” value ([8]; PA-041, ATM alone) was “S (S (sensitive, MIC ≤ 8 mg/L))” and the Susceptibility category ([8]; PA-041, Table S2) was “S”. For the same compound, the MIC ([8]; PA-041, Table S2, read-out: MIC value) was 4 µg/mL, the MIC ([8]; read-out: MIC of ATM, PA-041, ATM alone (5 at 0 mg/L)) was 4 µg/mL and the “Susceptibility to ATM” value ([9]; ATM alone) was “I (I (intermediate, MIC = 16 mg/L))”. The Susceptibility category ([9]; Table S2) was “I”, the “Susceptibility to ATM” value ([10]; ATM alone) was “I (I (intermediate, MIC = 16 mg/L))” and the Susceptibility category ([10]; Table S2) was “I”. For the same compound, the MIC50 ([11]; read-out: MIC50 of ATM, 5 at 0 mg/L) was 4 µg/mL (≈ 9.19 µM), the MIC90 ([11]; read-out: MIC90 of ATM, 5 at 0 mg/L) was 8 µg/mL (≈ 18.4 µM) and the “Susceptibility to ATM” value ([12]; ATM alone) was “R (R (resistant, MIC ≥ 32 mg/L))”. The Susceptibility category ([12]; Table S2) was “R”, the MIC ([12]; Pseudomonas aeruginosa, Table S2, read-out: MIC value) was 32 µg/mL and the “Susceptibility to ATM” value ([13]; ATM alone) was “I (I (intermediate, MIC = 16 mg/L))”. For the same compound, the Susceptibility category ([13]; Table S2) was “R”, the “Susceptibility to ATM” value ([14]; PA-027, ATM alone) was “R (R (resistant, MIC ≥ 32 mg/L))” and the Susceptibility category ([14]; PA-027, Table S2) was “R”. The MIC ([14]; PA-027, Table S2, read-out: MIC value) was 32 µg/mL and the MIC ([14]; read-out: MIC of ATM, PA-027, ATM alone (5 at 0 mg/L)) was 32 µg/mL.
